# Results reported in paper PMC9021288 (Nature Communications, 2022).
# “And” between values parts separate entries of the source, which are not always exact repeats. Equal entries are not always repeated.
# How the values were obtained:
# [1] = system: P. falciparum Dd2-B2 and NF54-HGL; assay: In vitro selection of drug-resistant parasites; format: cell-based, Plasmodium falciparum
# Procedure: Drug media was changed daily until cultures were cleared and every other day subsequently. […] Recrudescence was monitored by flow cytometry on an Accuri C6 (BD Biosciences) using BD C6 Plus for 60 days using SYBR Green and MitoTracker Deep Red FM (Life Technologies) as nuclear stain and vital dye, respectively, and data were analyzed using FlowJo (Supplementary Fig. 23). […] Whole-genome sequencing was performed to test for single nucleotide polymorphisms (SNPs) or copy number variations.
# [2] = Pharmacokinetics in dogs (cassette dosing); format: in vivo, Beagle dogs
# Procedure: Subsequently, samples were spun down at 1640 g for 5-10 min at 4 °C within 30 min after collection and plasma was collected. […] Urine was collected following an intravenous dose in both rat and dog, allowing renal clearance to be estimated. Human renal clearance was estimated from dog renal clearance as previously described[40] and other human PK parameters were predicted using allometric scaling and/or in vitro clearance data. PK parameters were calculated by naïve pooled approach using WinNonLin software (Phoenix, version 6.3).
# [3] = system: HepG2 cells; assay: HepG2 viability (resazurin); settings: for HepG2 viability assay, normalised to controls / HepG2 viability assay, raw signal: replicate 1, replicate 2
# Procedure: Safety studies were performed by commercial services using their standard protocols. […] Genotoxicity was investigated using the Ames test (Bacterial Reverse Mutation Assay) (Covance Laboratories Ltd, North Yorkshire, England). In vitro mammalian cell micronucleus screening assay was studied in human peripheral blood lymphocytes (BioReliance Corporation, Rockville, USA). Cardiotoxicity was determined against the hERG channel in an automated patch clamp assay using the Qpatch or against the hNaV 1.5, hKV 1.5 and hCaV 1.2 using a manual patch-clamp technique (Metrion Biosciences, Cambridge, UK). Cytotoxicity in human and rat primary hepatocytes was assessed using the CellTiter-Blue assay performed by commercial services (KaLy-Cell). The viability of HepG2 cells was monitored through the addition of 1 mM resazurin. Following 6 h incubation, the relative amount of reduced resazurin was detected in a fluorimeter and compared to the assay controls (vehicle: 0.1% DMSO and positive control: 10 µM puromycin).
smiles,measurement,setting,value
C[C@@H](CNC(=O)[C@H](O)C(C)(C)CO)NC(=O)c1cc(F)c(F)cc1F [MMV693183],minimum inoculum for resistance development,[1],10^9
same,Frequency (# of parasite positive flasks or wells),"[1]; 1x10^5 Dd2-B2, 15 nM",0/24
same,Frequency (# of parasite positive flasks or wells),"[1]; 1x10^7 Dd2-B2, 15-22 nM / 10.5-14 nM",0/3
same,Frequency (# of parasite positive flasks or wells),"[1]; 1x10^8 Dd2-B2, 10.5-14 nM",0/3
same,Frequency (# of parasite positive flasks or wells),"[1]; 1x10^9 Dd2-B2, 12-27 nM",3/3
same,Frequency (# of parasite positive flasks or wells),"[1]; NF54, 7 nM",2/2
same,Observed hepatic/ predicted hepatic,[2]; Dog,0.95
same,Observed total-renal = observed hepatic,[2]; Dog,10.5 mL/min/kg
same,Predicted hepatic plasma clearance,[2]; Dog,11.1 mL/min/kg
same,Norm. conc i.v.,"[2]; Dog, Time (hrs) 0.083333",1180 ng/mL and 892 ng/mL and 1160 ng/mL
same,Norm. conc i.v.,"[2]; Dog, Time (hrs) 0.25",732 ng/mL and 660 ng/mL and 906 ng/mL
same,Norm. conc i.v.,"[2]; Dog, Time (hrs) 0.5",414 ng/mL and 439 ng/mL and 345 ng/mL
same,Norm. conc i.v.,"[2]; Dog, Time (hrs) 1",166 ng/mL and 228 ng/mL and 178 ng/mL
same,Norm. conc i.v.,"[2]; Dog, Time (hrs) 2",52.9 ng/mL and 68.5 ng/mL and 55.6 ng/mL
same,Norm. conc i.v.,"[2]; Dog, Time (hrs) 4",28.7 ng/mL and 29.7 ng/mL and 29.8 ng/mL
same,Norm. conc i.v.,"[2]; Dog, Time (hrs) 8",14.6 ng/mL and 21.2 ng/mL and 17.8 ng/mL
same,Norm. conc i.v.,"[2]; Dog, Time (hrs) 24",2 ng/mL and 3.19 ng/mL and 2.05 ng/mL
same,Norm. conc p.o.,"[2]; Dog, Time (hrs) 0.25",815 ng/mL and 580 ng/mL and 439 ng/mL
same,Norm. conc p.o.,"[2]; Dog, Time (hrs) 0.5",485 ng/mL and 365 ng/mL and 280.5 ng/mL
same,Norm. conc p.o.,"[2]; Dog, Time (hrs) 1",132.5 ng/mL and 118.5 ng/mL and 171.5 ng/mL
same,Norm. conc p.o.,"[2]; Dog, Time (hrs) 2",29.9 ng/mL and 28.05 ng/mL and 47.05 ng/mL
same,Norm. conc p.o.,"[2]; Dog, Time (hrs) 4",15.6 ng/mL and 14.15 ng/mL and 21.05 ng/mL
same,Norm. conc p.o.,"[2]; Dog, Time (hrs) 24",1 ng/mL and 1.115 ng/mL
same,AUC0-∞,"[2]; i.v. 1 mg/kg, mean",1451 ng·h/mL
same,AUClast,"[2]; i.v. 1 mg/kg, mean",1423 ng·h/mL
same,Cmax,"[2]; i.v. 1 mg/kg, mean",1077 ng/mL
same,Vss_obs,"[2]; i.v. 1 mg/kg, mean",1.79 L/kg
same,CLtotal,"[2]; i.v. 1 mg/kg, mean, 1 mg/kg",11.5 mL/min/kg and 11.52 mL/min/kg
same,T1/2,"[2]; i.v. 1 mg/kg, mean, 1 mg/kg",4.2 h and 4.23 h
same,AUC0-∞,"[2]; p.o. 2 mg/kg, mean",1902 ng·h/mL
same,AUClast,"[2]; p.o. 2 mg/kg, mean",1844 ng·h/mL
same,Cmax,"[2]; p.o. 2 mg/kg, mean",1286 ng/mL
same,T1/2,"[2]; p.o. 2 mg/kg, mean",2.93 h
same,F,"[2]; p.o. 2 mg/kg, mean, 2 mg/kg",64% and 63.7%
same,Tmax,"[2]; p.o. 2 mg/kg, mean, 2 mg/kg",0.333 h
same,"HepG2 viability assay, normalised to controls",[3]; log concentration (M) -5,96% and 104%
same,"HepG2 viability assay, raw signal",[3]; log concentration (M) -5,10734 and 11536
same,"HepG2 viability assay, normalised to controls",[3]; log concentration (M) -5.5,103% and 105%
same,"HepG2 viability assay, raw signal",[3]; log concentration (M) -5.5,11483 and 11722
same,"HepG2 viability assay, normalised to controls",[3]; log concentration (M) -6,105% and 100%
same,"HepG2 viability assay, raw signal",[3]; log concentration (M) -6,11668 and 11173
same,"HepG2 viability assay, normalised to controls",[3]; log concentration (M) -6.5,103% and 102%
same,"HepG2 viability assay, raw signal",[3]; log concentration (M) -6.5,11442 and 11328
same,"HepG2 viability assay, normalised to controls",[3]; log concentration (M) -7,100% and 101%
same,"HepG2 viability assay, raw signal",[3]; log concentration (M) -7,11114 and 11207
same,"HepG2 viability assay, normalised to controls",[3]; log concentration (M) -7.5,104% and 107%
same,"HepG2 viability assay, raw signal",[3]; log concentration (M) -7.5,11575 and 11909
same,"HepG2 viability assay, normalised to controls",[3]; log concentration (M) -8,105% and 102%
same,"HepG2 viability assay, raw signal",[3]; log concentration (M) -8,11700 and 11315
same,"HepG2 viability assay, normalised to controls",[3]; log concentration (M) -8.5,105% and 101%
same,"HepG2 viability assay, raw signal",[3]; log concentration (M) -8.5,11684 and 11300
same,"HepG2 viability assay, normalised to controls",[3]; log concentration (M) -9,109%
same,"HepG2 viability assay, raw signal",[3]; log concentration (M) -9,12138 and 12106
same,IC50,"[3]; read-out: IC50 viability, HepG2",> 10 µM
